This passage reports GI50 and TGI results from PubChem BioAssay (NCI).

Common to all, as to assay: inhibition of tumour cell growth, NCI panel, 48 h
The subject of experiment [1] is MDA-MB-435.
The subject of experiment [2] is K-562 leukemia.
Experiment [3] concerns SNB-19 CNS.
The subject of experiment [4] is HCT-15 colon.
Experiment [5] relates to SF-268 CNS.
For experiment [6], the system named is SK-OV-3 ovarian.
Experiment [7] has as its system OVCAR-5 ovarian.
Experiment [8] concerns OVCAR-4 ovarian.
Experiment [9] relates to COLO 205 colon.
The subject of experiment [10] is PC-3 prostate.

The structures appear in SMILES notation. Several values for one entry are separate records, joined by “and”; a condition that tells them apart may be missing. Identical values can stand only once.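 Protocol summary: plate cells (96-well), add compound at 5 concentrations, incubate 48 h, interpolate endpoints linearly. GI50 marks 50% less growth. At the TGI there is no net growth.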 A value given as a limit tells only on which side of the number the result lay.

For the compound `CC(C)(C)OC(=O)Nc1ccc2c(c1)C(NC(=O)Nc1cccc(C#N)c1)CC(C)(C)O2` (configuration not stated), the GI50 in experiment [1] is 1.44 µM; in experiment [2] it was 2.12 µM; in experiment [3] it was 3.54 µM; in [4] it was 1.89 µM; in experiment [5], 5.1 µM; in [6], 8.68 µM. For the same compound, the GI50 in [7] is 28 µM; in experiment [8] it was 1.18 µM; in experiment [9], 3.46 µM; in experiment [10], 0.785 µM. Moreover, the TGI in experiment [1] is 15.2 µM; in experiment [2], greater than 100 µM; in experiment [3] it was greater than 100 µM; in [4], greater than 51.3 µM; in experiment [5] it was greater than 100 µM; in experiment [6], greater than 100 µM. The TGI is greater than 100 µM in [7], greater than 100 µM in experiment [8], 15.3 µM in experiment [9] and greater than 35.3 µM in [10].

`CC1=NOC(=O)/C1=C/c1ccc2c(c1)OCO2`: the TGI in experiment [1] was 56.6 µM; in experiment [2], greater than 100 µM; in [3], 95 µM; in [4], 45.3 µM; in [5], greater than 100 µM; in experiment [6], greater than 100 µM. The TGI in [7] is greater than 100 µM; in [8] it was greater than 100 µM; in [9], 32.4 µM; in [10], 48.5 µM.

For `CCC1=C(CC2NCCc3ccccc32)CC2c3cc(OC)c(OC)cc3CCN2C1` (configuration not stated), the GI50 was 3.51 µM in experiment [1]; 2.26 µM in experiment [2]; 3.6 µM in experiment [3]; 5.17 µM in [4]; 3.13 µM in [5]; 4.07 µM in experiment [6]. The GI50 was 6.15 µM in experiment [7]; 3.87 µM in [8]; 1.81 µM and 0.199 µM in experiment [9]; 3.48 µM in experiment [10]. Besides, the TGI was 14.2 µM and 2.45 µM in experiment [1]; 7.41 µM and 2.1 µM in experiment [2]; 13.7 µM and 11.9 µM in [3]; 30.8 µM and 20.4 µM in experiment [4]; 14 µM and 6.12 µM in experiment [5]; 25.6 µM and 17.1 µM in experiment [6]. Further, the TGI in [9] is 4.13 µM and 0.547 µM.

For `COc1cc(C(=O)c2cocc2C(=O)c2ccc3c(c2)OCO3)cc(OC)c1OC`, the TGI was 0.955 µM in experiment [1]; greater than 94.9 µM in [2]; 35.3 µM in [3]; 35.3 µM in experiment [4]; 45 µM in experiment [5]; 47.3 µM in [6]. The TGI in experiment [7] was greater than 66.3 µM; in [8], greater than 54.3 µM; in experiment [9], 26.5 µM; in [10], greater than 35.9 µM.

As for `CC(SCc1ccccc1)C(=O)O` (configuration not stated), the TGI in experiment [1], in [2], in experiment [3], in experiment [4], in experiment [5] and in [6] was greater than 100 µM throughout. Besides, the TGI in experiment [7], in experiment [8], in experiment [9] and in experiment [10] was greater than 100 µM in each case.

`O=c1/c(=N\Nc2ccccc2)c2cccc3ccc4cccc1c4c32`: the TGI in experiment [1], in experiment [2], in experiment [3], in experiment [4], in [5] and in experiment [6] was greater than 100 µM throughout. Further, the TGI in [7], in experiment [8], in experiment [9] and in experiment [10] was greater than 100 µM each time.

On to `CCn1c(-c2nonc2N)nc2c(N3CCCC3)nccc21`, for which the GI50 in [1] is 12.2 µM; in experiment [2] it was 10.3 µM; in [3] it was 19.4 µM; in [4], 11.2 µM; in [5], 13.3 µM; in experiment [6], greater than 24 µM. The GI50 was 12.5 µM in experiment [7], 10.3 µM in experiment [8], 11 µM in experiment [9] and 14.4 µM in experiment [10]. Moreover, the TGI in experiment [1], in experiment [2], in experiment [3], in experiment [4], in [5] and in [6] was greater than 25 µM each time. Moreover, the TGI in experiment [7], in experiment [8], in experiment [9] and in experiment [10] was greater than 25 µM in each case.

Turning to `COC(=O)[C@H](Cc1cn(C)cn1)NC(=O)[C@H](Cc1ccccc1)NC(=O)Nc1cc(C(F)(F)F)cc(C(F)(F)F)c1`, the GI50 was 15.3 µM in experiment [1]; 7.69 µM and 5.97 µM in [2]; 14.2 µM in [3]; 16.9 µM in [4]; 4.26 µM and 10.2 µM in experiment [5]; 19.2 µM in [6]. The GI50 in [7] is 16.8 µM; in experiment [8], 13.8 µM; in experiment [9] it was 15.3 µM; in experiment [10], 9.17 µM and 12.4 µM. For the same compound, the TGI turned out to be 29.4 µM in experiment [1]; 20.5 µM in experiment [2]; 28.3 µM in [3]; 42.4 µM in experiment [4]; 23.8 µM in experiment [5]; 33.3 µM in experiment [6]. Moreover, the TGI in experiment [7] worked out at 32.5 µM; in experiment [8], 28.5 µM; in experiment [9], 31.6 µM; in experiment [10], 25.8 µM.

`O=C(/C=C/C12c3ccccc3C(c3ccccc31)C1C(=O)NC(=O)C12)c1ccccc1` (configuration not stated): the GI50 is 2.16 µM in [1]; 1.94 µM in [2]; 1.66 µM in experiment [3]; 1.64 µM in [4]; 2.17 µM in experiment [5]; 2.37 µM in [6]. In addition, the GI50 was 2.01 µM in [7], 2.3 µM in [8], 2.05 µM in [9] and 1.62 µM in [10]. The TGI was 5.9 µM in experiment [1]; greater than 100 µM in experiment [2]; 3.34 µM in [3]; 6.84 µM in [4]; 6.55 µM in experiment [5]; 5.2 µM in experiment [6]. Besides, the TGI in experiment [7] was determined as 4.83 µM; in [8] it was 12.1 µM; in [9], 4.03 µM; in experiment [10] it was 3.45 µM.

Turning to `O=C([O-])CC(=O)[O-].[NH-][C@@H]1CCCC[C@H]1[NH-].[Pt+4]`, the GI50 is 15.5 µM in experiment [1]; 3.66 µM in experiment [2]; 32.1 µM in [3]; 9.61 µM in experiment [4]; 59.1 µM in [5]; greater than 100 µM in [6]. The GI50 was greater than 63.9 µM in [7], greater than 33.9 µM in experiment [8], 54 µM in experiment [9] and 37 µM in experiment [10]. Besides, the TGI in experiment [1], in experiment [2], in [3], in experiment [4], in experiment [5] and in [6] was greater than 100 µM in each case. Moreover, the TGI in experiment [7], in [8], in experiment [9] and in experiment [10] was greater than 100 µM in each case.

In the case of `CC1(C)CCC[C@]2(C)c3ccccc3C(=O)CC12` (some centres not stated), the GI50 in experiment [1] is 22.9 µM; in experiment [2] it was 41.4 µM; in experiment [3], 49.6 µM; in experiment [4] it was 24.9 µM; in experiment [5] it was 34.3 µM; in experiment [6], greater than 100 µM. For the same compound, the GI50 was greater than 100 µM in [7], greater than 100 µM in [8], 27.4 µM in [9] and 42 µM in experiment [10]. Also, the TGI in experiment [1], in experiment [2], in experiment [3], in experiment [4], in experiment [5] and in experiment [6] was greater than 100 µM throughout. The TGI in experiment [7], in experiment [8], in experiment [9] and in experiment [10] was greater than 100 µM each time.
